We go through 2 compounds from publication PMC11088877, “AMP-activated protein kinase can be allosterically activated by ADP but AMP remains the key activating ligand” (Biochemical Journal, 2024).

The target in assay [1] is bacterially expressed AMPK heterotrimers (γ subunit CBS sites). The following applies: cited from earlier work.
Assay [2] addresses T1, human α2β2γ1 complex, CBS1 mutant (L129D/V130D) (Homo sapiens, UniProt P54619+P54646, L129D/V130D).
T1 construct: made in house; host or cells: Escherichia coli
Description: Allosteric activation of CBS1 mutant human α2β2γ1 AMPK complex. The format is biochemical. From the text:
(§1) To study allosteric activation with a more well-defined AMPK complex, and to study the effects of mutations in individual adenine nucleotide-binding sites on the γ subunit, we expressed a human α2β2γ1 complex in Escherichia coli and purified it utilizing the polyhistidine tag at the N-terminus of the α2 subunit. […] However, it had not been co-expressed with an N-myristoyl transferase so would not have been N-myristoylated on the β2 subunit. The complex was expressed not only with the WT γ1 sequence but also with mutations affecting hydrophobic residues previously shown to be involved in binding of the adenine moieties of nucleotides at CBS1 (L129D/V130D), CBS3 (V276G/L277G) and CBS4 (I312G). All four complexes co-purified as heterotrimeric 1:1:1 complexes as expected, and were phosphorylated and activated equally well either by CaMKK2 or the LKB1: STRADα:MO25α complex (Supplementary Figure S2). For the studies described below we phosphorylated Thr172 using a GST-tagged CaMKK2 and repurified AMPK using size exclusion chromatography and a glutathione-Sepharose column, which remove CaMKK2.
(§2) Figure 4. Allosteric activation of WT and mutant human α2β2γ1 AMPK complex by AMP and ADP at three different concentrations of ATP. The α2β2γ1 complex was phosphorylated on Thr172 prior to assay using CaMKK2. The γ1 subunit was either (A/E): WT; (B/F): a CBS1 mutant (L129D/V130D); (C/G): a CBS3 mutant (V276G/L277G); (D/H): a CBS4 mutant (I312G). Results are means of duplicate assays ± SD; error bars are not shown if they were smaller than the symbols used for mean values. Assays and curve fitting were as in Figure 1 at either 0.2 mM (left panels) or 5 mM (right panels) ATP. Best-fit values for all parameters used to generate the curves are listed in Supplementary Table S1.
(§3) Sources of antibodies were as described: pThr172 (AMPK-α: Cell Signaling Technologies, Danvers, MA, U.S.A., Cat# 2535), AMPK-α2 [22]. Rat liver AMPK was purified as described previously. Plasmid encoding human (His)6-tagged AMPK (α2β2γ1, bacterially expressed) generated as in [23], was a gift from AstraZeneca, Cambridge, U.K. The L129D/V130D (CBS1), V276G/L277G (CBS3) and I312G (CBS4) mutations in the α2β2γ1 complex were generated using the Quikchange II site-directed mutagenesis kit (Agilent Technologies) and confirmed by DNA sequencing. Human GST-tagged α2 kinase domain (1–310), LKB1:STRAD-α:MO25-α complexes, GST-tagged CaMKK2 [26], and PPM1A (PP2Cα) were produced as described. Bacterially expressed heterotrimers were activated by phosphorylation of Thr172 by GST-tagged CaMKK2 in the presence of ATP, and CaMKK2 was subsequently removed by passage through glutathione-Sepharose. Human GST-tagged α2 kinase domain was activated in a similar manner except that human (His)6-tagged LKB1:STRAD-α:MO25-α complex was used and removed after activation via passage through a His-Trap column. Recombinant human 5′-nucleotidase, CD73, Cat # 5795-EN-01, was from R&D systems (Minneapolis, MN, U.S.A.).
(§4) AMPK assays measured the transfer of radioactivity from [γ-^33P]ATP to a peptide substrate, which was separated from unreacted ATP by binding to P81 paper. This assay was described previously except that we used [γ-^33P] rather than [γ-^32P]ATP. In some assays (specified in Figure legends) the concentration of ATP was increased from 0.2 to 1 or 5 mM ATP, with MgCl2 concentrations maintained at a constant 4.8 mM excess above the concentration of ATP [19]. Where allosteric activation by AMP or ADP was being studied, we used the SAMS peptide as substrate. For all other assays the AMARA peptide was used.

Assay [3] concerns the target T2, human α2β2γ1 complex, CBS4 mutant (I312G) (Homo sapiens, UniProt P54619+P54646, I312G).
T2 construct: made in house; host or cells: Escherichia coli
The assay can be described thus: Allosteric activation of CBS4 mutant human α2β2γ1 AMPK complex. It is filed as biochemical. The following applies: for Activation (maximal) / pIC50 / pEC50 / IC50/EC50: α2β2γ1 CBS4 mutant.
Text: as §1, §2, §3, §4

Where [4] appears, read: in the presence of Mg2+ and staurosporine, read-out: estimated Kd at the CBS3 site.

Structures are written as SMILES. pEC50, pIC50, pKd: −log10 of the molar value. Values joined by “and” are separate entries in the source; they are usually repeats but may differ in a detail not shown here. Identical values can stand only once. Like-named read-outs stand apart in the source and are kept apart here.

T1 sequence (P54619 whole entry L129D/V130D): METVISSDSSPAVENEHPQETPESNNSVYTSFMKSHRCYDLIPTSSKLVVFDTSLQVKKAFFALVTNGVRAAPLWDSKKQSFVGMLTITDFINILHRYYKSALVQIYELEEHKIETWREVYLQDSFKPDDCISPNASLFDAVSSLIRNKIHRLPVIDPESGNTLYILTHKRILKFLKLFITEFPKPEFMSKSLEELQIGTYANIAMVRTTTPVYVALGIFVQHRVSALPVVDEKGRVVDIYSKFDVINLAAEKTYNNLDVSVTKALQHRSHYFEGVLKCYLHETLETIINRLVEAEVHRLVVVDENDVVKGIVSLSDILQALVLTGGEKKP
T1 sequence (P54646 whole entry): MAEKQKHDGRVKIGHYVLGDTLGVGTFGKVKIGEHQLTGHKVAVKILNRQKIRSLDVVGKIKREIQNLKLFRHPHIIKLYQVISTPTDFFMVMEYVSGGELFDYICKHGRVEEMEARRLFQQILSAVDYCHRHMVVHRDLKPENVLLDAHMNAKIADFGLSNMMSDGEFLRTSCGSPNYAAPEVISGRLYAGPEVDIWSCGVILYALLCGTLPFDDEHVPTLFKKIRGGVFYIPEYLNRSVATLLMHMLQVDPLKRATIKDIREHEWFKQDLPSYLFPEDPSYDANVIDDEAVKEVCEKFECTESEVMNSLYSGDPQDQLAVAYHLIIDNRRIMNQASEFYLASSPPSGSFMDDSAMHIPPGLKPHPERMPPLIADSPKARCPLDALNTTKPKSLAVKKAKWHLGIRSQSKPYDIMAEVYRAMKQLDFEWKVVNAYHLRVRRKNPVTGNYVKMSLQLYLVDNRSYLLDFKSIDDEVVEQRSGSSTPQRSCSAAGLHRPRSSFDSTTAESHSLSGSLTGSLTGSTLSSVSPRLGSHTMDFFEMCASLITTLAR
T1 sequence (O43741 whole entry partner): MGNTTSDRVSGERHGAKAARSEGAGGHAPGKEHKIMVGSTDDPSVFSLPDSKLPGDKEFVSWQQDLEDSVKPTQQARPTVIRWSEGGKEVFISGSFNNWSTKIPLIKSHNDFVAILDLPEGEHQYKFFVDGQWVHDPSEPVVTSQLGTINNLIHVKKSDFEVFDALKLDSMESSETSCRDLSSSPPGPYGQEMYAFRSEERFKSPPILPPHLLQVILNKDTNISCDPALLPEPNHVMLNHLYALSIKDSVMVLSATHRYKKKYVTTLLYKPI
T2 sequence (P54619 whole entry I312G): as the sequence (P54619 whole entry L129D/V130D) above, with D129L, D130V, I312G counted along it
T2 sequence (P54646 whole entry): as the sequence (P54646 whole entry) above
T2 sequence (O43741 whole entry partner): as the sequence (O43741 whole entry partner) above

In general, pKd refers to −log10 of the Kd, conventionally taken in molar units. As a reminder, the pIC50 is the IC50 on a negative log10 scale, so that one unit is a factor of ten. A low value points to a high IC50. Take `Nc1ncnc2c1ncn2[C@@H]1O[C@H](COP(=O)(O)OP(=O)(O)O)[C@@H](O)[C@H]1O` [ADP]: the pKd in assay [1] (setting [4]) was 4.62 to 4.92. For the same compound, the “Activation (maximal)” value in assay [2] (0.2 mM ATP) was “did not cause allosteric activation and none”; in assay [2] (5.0 mM ATP) it was “abolished allosteric activation and essentially abolished allosteric activation and none”; in assay [3] (0.2 mM ATP), “did not cause allosteric activation and none”; in assay [3] (5.0 mM ATP), “essentially abolished allosteric activation and none”. The pIC50 in assay [2] (0.2 mM ATP) was 3.00; in assay [3] (0.2 mM ATP) it was 3.11; in assay [3] (5.0 mM ATP) it was 1.51.

For orientation: pEC50 means −log10 of the EC50, conventionally taken in molar units. Lower therefore signals a high EC50. Consider `Nc1ncnc2c1ncn2[C@@H]1O[C@H](COP(=O)(O)O)[C@@H](O)[C@H]1O` [AMP], for which the negative logarithm of the Kd (pKd) was 5.70 to 6.00 in assay [1] (setting [4]); 5.40 to 5.70 in assay [1] (various bacterially expressed heterotrimers, read-out: Kd, AMP-binding site of high affinity); 3.40 to 4.40 in assay [1] (various bacterially expressed heterotrimers, read-out: Kd, AMP-binding site of low affinity). Moreover, the “Activation (maximal)” value in assay [2] (0.2 mM ATP) is 2.4 (2.3-2.4) fold; in assay [2] (5.0 mM ATP) it was 2.4 fold and 2.3 fold; in assay [3] (0.2 mM ATP), 2.1 fold and 2.1 (2.0-2.1) fold; in assay [3] (5.0 mM ATP) it was 2.0- to 2.5 fold and 2.1 (1.9-2.4) fold. Further, the pEC50 in assay [2] (0.2 mM ATP) is 5.80; in assay [2] (5.0 mM ATP) it was 4.72; in assay [3] (0.2 mM ATP), 4.42; in assay [3] (5.0 mM ATP), 3.55. In addition, the pIC50 in assay [2] (0.2 mM ATP) was 2.47; in assay [2] (5.0 mM ATP) it was 1.28; in assay [3] (0.2 mM ATP), 2.48; in assay [3] (5.0 mM ATP), 1.55. Moreover, the IC50/EC50 in assay [2] (0.2 mM ATP) was 2100; in assay [2] (5.0 mM ATP) it was 2700; in assay [3] (0.2 mM ATP), 87; in assay [3] (5.0 mM ATP), 100. Also, in assay [3] (α2β2γ1 CBS4 mutant vs WT, 0.2 mM ATP), the “increase of EC50 for activation relative to WT” value is on record as 40 fold. Further, the “increase of EC50 relative to WT” value in assay [3] (α2β2γ1 CBS4 mutant vs WT, 5 mM ATP) was 10- to 20 fold.
